# Measurements: publication PMC11224111, “Optimizing the pharmacokinetics of an ^211At-labeled RGD peptide with an albumin-binding moiety via the administration of an albumin-binding inhibitor” (European Journal of Nuclear Medicine and Molecular Imaging, 2024)
# Key:
# [1] = mouse, in vivo; cited from earlier work
# [2] = tested on: U-87 MG tumor-bearing mice; test: Biodistribution in U-87 MG tumor-bearing mice with IPBA; assay type: in vivo; conditions: IPBA 10 eq at 1 h postinjection
# Procedure: To prepare tumor-bearing mice, 5 × 10^6 of U-87 MG cells were subcutaneously inoculated into the right shoulder of 4-week-old female BALB/c nude mice (13–15 g, Japan SLC, Inc.) as previously reported. At approximately 10-day postinoculation of U-87 MG cells, they were used for each experiment after tumor size reached 0.3–0.5 cm^3.
# At 1-h postinjection of [^211At]1 (37 kBq) and [^125I]2 (37 kBq), IPBA (1.9 mg, 6.1 µmol) was administered at 10 molar equivalent of blood albumin. Mice were sacrificed at 65-, 70-min, 2-, 4-, 12-, and 24-h postinjection of [^211At]1 and [^125I]2. Tissues of interest were removed and weighed, and radioactivity counts of ^125I and ^211At were determined with an auto well gamma counter (ARC-7010; Hitachi Medical, Ltd., Tokyo, Japan) and corrected for background radiation. To determine the radioactivity excreted from the body for 24 h, mice were housed in metabolic cages (Metabolica, Sugiyama-Gen Co., Ltd., Tokyo, Japan).
substance,measurement,setting,value
Ga-DOTA-K([^125I]IPBA)-c(RGDfK) [[^125I]2],"Radioactivity, Blood",[1],11.80 (0.75) % injected activity per gram
same,"Radioactivity, Bone",[1],1.50 (0.26) % injected activity per gram
same,"Radioactivity, Brain",[1],0.29 (0.03) % injected activity per gram
same,"Radioactivity, Heart",[1],3.81 (0.18) % injected activity per gram
same,"Radioactivity, Kidney",[1],3.70 (0.65) % injected activity per gram
same,"Radioactivity, L. intestine",[1],1.20 (0.25) % injected activity per gram
same,"Radioactivity, Liver",[1],1.96 (0.18) % injected activity per gram
same,"Radioactivity, Lung",[1],5.60 (0.52) % injected activity per gram
same,"Radioactivity, Muscle",[1],1.32 (0.16) % injected activity per gram
same,"Radioactivity, Neck",[1],0.09 (0.02) % injected activity
same,"Radioactivity, Pancreas",[1],2.05 (0.25) % injected activity per gram
same,"Radioactivity, S. intestine",[1],1.58 (0.31) % injected activity per gram
same,"Radioactivity, Spleen",[1],1.61 (0.12) % injected activity per gram
same,"Radioactivity, Stomach",[1],0.87 (0.11) % injected activity
same,"Radioactivity, Blood",[2]; 65 min after administration,11.19 (0.16)^ ** % injected activity per gram
same,"Radioactivity, Bone",[2]; 65 min after administration,4.94 (1.52) % injected activity per gram
same,"Radioactivity, Brain",[2]; 65 min after administration,0.31 (0.02) % injected activity per gram
same,"Radioactivity, Heart",[2]; 65 min after administration,4.77 (0.10) % injected activity per gram
same,"Radioactivity, Kidney",[2]; 65 min after administration,17.52 (1.13)^ * % injected activity per gram
same,"Radioactivity, L. intestine",[2]; 65 min after administration,3.10 (0.11) % injected activity per gram
same,"Radioactivity, Liver",[2]; 65 min after administration,5.29 (0.52)^ * % injected activity per gram
same,"Radioactivity, Lung",[2]; 65 min after administration,10.10 (0.52)^ ** % injected activity per gram
same,"Radioactivity, Muscle",[2]; 65 min after administration,2.62 (0.24) % injected activity per gram
same,"Radioactivity, Neck",[2]; 65 min after administration,0.05 (0.01)^ * % injected activity
same,"Radioactivity, Pancreas",[2]; 65 min after administration,2.66 (0.10) % injected activity per gram
same,"Radioactivity, S. intestine",[2]; 65 min after administration,4.93 (0.21)^ * % injected activity per gram
same,"Radioactivity, Spleen",[2]; 65 min after administration,3.95 (0.26) % injected activity per gram
same,"Radioactivity, Stomach",[2]; 65 min after administration,1.33 (0.31) % injected activity
same,"Radioactivity, Tumor",[2]; 65 min after administration,11.58 (0.32)^ * % injected activity per gram
same,"Radioactivity, Blood",[2]; 70 min after administration,7.91 (0.45)^ *** % injected activity per gram
same,"Radioactivity, Bone",[2]; 70 min after administration,2.30 (0.36) % injected activity per gram
same,"Radioactivity, Brain",[2]; 70 min after administration,0.24 (0.04) % injected activity per gram
same,"Radioactivity, Heart",[2]; 70 min after administration,3.25 (0.25)^ ** % injected activity per gram
same,"Radioactivity, Kidney",[2]; 70 min after administration,11.87 (1.35)^ *** % injected activity per gram
same,"Radioactivity, L. intestine",[2]; 70 min after administration,2.29 (0.24) % injected activity per gram
same,"Radioactivity, Liver",[2]; 70 min after administration,3.64 (0.49)^ * % injected activity per gram
same,"Radioactivity, Lung",[2]; 70 min after administration,6.75 (0.74)^ ** % injected activity per gram
same,"Radioactivity, Muscle",[2]; 70 min after administration,1.53 (0.18) % injected activity per gram
same,"Radioactivity, Neck",[2]; 70 min after administration,0.06 (0.01) % injected activity
same,"Radioactivity, Pancreas",[2]; 70 min after administration,1.82 (0.14)^ * % injected activity per gram
same,"Radioactivity, S. intestine",[2]; 70 min after administration,3.77 (0.37)^ ** % injected activity per gram
same,"Radioactivity, Spleen",[2]; 70 min after administration,2.83 (0.36) % injected activity per gram
same,"Radioactivity, Stomach",[2]; 70 min after administration,0.78 (0.15) % injected activity
same,"Radioactivity, Tumor",[2]; 70 min after administration,11.24 (1.19)^ ** % injected activity per gram
same,"Radioactivity, Blood",[2]; 2 h after administration,5.69 (0.44)^ *** % injected activity per gram
same,"Radioactivity, Bone",[2]; 2 h after administration,2.73 (0.47) % injected activity per gram
same,"Radioactivity, Brain",[2]; 2 h after administration,0.24 (0.02) % injected activity per gram
same,"Radioactivity, Heart",[2]; 2 h after administration,2.24 (0.23)^ ** % injected activity per gram
same,"Radioactivity, Kidney",[2]; 2 h after administration,8.39 (0.51) % injected activity per gram
same,"Radioactivity, L. intestine",[2]; 2 h after administration,2.48 (1.12) % injected activity per gram
same,"Radioactivity, Liver",[2]; 2 h after administration,2.31 (0.17)^ * % injected activity per gram
same,"Radioactivity, Lung",[2]; 2 h after administration,4.74 (0.12)^ * % injected activity per gram
same,"Radioactivity, Muscle",[2]; 2 h after administration,1.73 (0.60)^ * % injected activity per gram
same,"Radioactivity, Neck",[2]; 2 h after administration,0.08 (0.04) % injected activity
same,"Radioactivity, Pancreas",[2]; 2 h after administration,1.68 (0.36) % injected activity per gram
same,"Radioactivity, S. intestine",[2]; 2 h after administration,2.41 (0.71) % injected activity per gram
same,"Radioactivity, Spleen",[2]; 2 h after administration,2.33 (0.14) % injected activity per gram
same,"Radioactivity, Stomach",[2]; 2 h after administration,0.77 (0.08) % injected activity
same,"Radioactivity, Tumor",[2]; 2 h after administration,14.36 (1.54)^ ** % injected activity per gram
same,"Radioactivity, Blood",[2]; 4 h after administration,1.71 (0.12)^ ** % injected activity per gram
same,"Radioactivity, Bone",[2]; 4 h after administration,1.46 (0.16) % injected activity per gram
same,"Radioactivity, Brain",[2]; 4 h after administration,0.18 (0.01) % injected activity per gram
same,"Radioactivity, Heart",[2]; 4 h after administration,1.22 (0.12) % injected activity per gram
same,"Radioactivity, Kidney",[2]; 4 h after administration,5.00 (0.36)^ ** % injected activity per gram
same,"Radioactivity, L. intestine",[2]; 4 h after administration,4.61 (1.33)^ ** % injected activity per gram
same,"Radioactivity, Liver",[2]; 4 h after administration,1.32 (0.06) % injected activity per gram
same,"Radioactivity, Lung",[2]; 4 h after administration,2.31 (0.06)^ *** % injected activity per gram
same,"Radioactivity, Muscle",[2]; 4 h after administration,0.52 (0.05)^ * % injected activity per gram
same,"Radioactivity, Neck",[2]; 4 h after administration,0.05 (0.04) % injected activity
same,"Radioactivity, Pancreas",[2]; 4 h after administration,0.72 (0.15) % injected activity per gram
same,"Radioactivity, S. intestine",[2]; 4 h after administration,3.09 (0.79) % injected activity per gram
same,"Radioactivity, Spleen",[2]; 4 h after administration,1.83 (0.10)^ * % injected activity per gram
same,"Radioactivity, Stomach",[2]; 4 h after administration,0.65 (0.09) % injected activity
same,"Radioactivity, Tumor",[2]; 4 h after administration,12.42 (0.89) % injected activity per gram
same,"Radioactivity, Blood",[2]; 12 h after administration,1.65 (0.20)^ *** % injected activity per gram
same,"Radioactivity, Bone",[2]; 12 h after administration,0.72 (0.09)^ * % injected activity per gram
same,"Radioactivity, Brain",[2]; 12 h after administration,0.07 (0.01)^ ** % injected activity per gram
same,"Radioactivity, Heart",[2]; 12 h after administration,1.02 (0.07)^ ** % injected activity per gram
same,"Radioactivity, Kidney",[2]; 12 h after administration,2.71 (0.17)^ *** % injected activity per gram
same,"Radioactivity, L. intestine",[2]; 12 h after administration,0.75 (0.05)^ *** % injected activity per gram
same,"Radioactivity, Liver",[2]; 12 h after administration,0.70 (0.08)^ *** % injected activity per gram
same,"Radioactivity, Lung",[2]; 12 h after administration,2.07 (0.11)^ *** % injected activity per gram
same,"Radioactivity, Muscle",[2]; 12 h after administration,0.37 (0.01)^ *** % injected activity per gram
same,"Radioactivity, Neck",[2]; 12 h after administration,0.06 (0.02)^ * % injected activity
same,"Radioactivity, Pancreas",[2]; 12 h after administration,0.50 (0.02)^ ** % injected activity per gram
same,"Radioactivity, S. intestine",[2]; 12 h after administration,0.68 (0.10)^ *** % injected activity per gram
same,"Radioactivity, Spleen",[2]; 12 h after administration,1.03 (0.05)^ ** % injected activity per gram
same,"Radioactivity, Stomach",[2]; 12 h after administration,0.39 (0.02)^ ** % injected activity
same,"Radioactivity, Tumor",[2]; 12 h after administration,7.08 (0.74)^ ** % injected activity per gram
same,"Radioactivity, Blood",[2]; 24 h after administration,1.55 (0.17)^ * % injected activity per gram
same,"Radioactivity, Bone",[2]; 24 h after administration,0.48 (0.04) % injected activity per gram
same,"Radioactivity, Brain",[2]; 24 h after administration,0.05 (0.01) % injected activity per gram
same,"Radioactivity, Heart",[2]; 24 h after administration,0.92 (0.58) % injected activity per gram
same,"Radioactivity, Kidney",[2]; 24 h after administration,1.67 (0.24) % injected activity per gram
same,"Radioactivity, L. intestine",[2]; 24 h after administration,0.38 (0.22) % injected activity per gram
same,"Radioactivity, Liver",[2]; 24 h after administration,0.56 (0.10)^ * % injected activity per gram
same,"Radioactivity, Lung",[2]; 24 h after administration,1.58 (0.42) % injected activity per gram
same,"Radioactivity, Muscle",[2]; 24 h after administration,0.26 (0.02) % injected activity per gram
same,"Radioactivity, Neck",[2]; 24 h after administration,0.03 (0.00) % injected activity
same,"Radioactivity, Pancreas",[2]; 24 h after administration,0.27 (0.05) % injected activity per gram
same,"Radioactivity, S. intestine",[2]; 24 h after administration,0.26 (0.11) % injected activity per gram
same,"Radioactivity, Spleen",[2]; 24 h after administration,0.72 (0.16)^ * % injected activity per gram
same,"Radioactivity, Stomach",[2]; 24 h after administration,0.20 (0.04)^ * % injected activity
same,"Radioactivity, Tumor",[2]; 24 h after administration,5.51 (0.05)^ * % injected activity per gram
same,"Radioactivity excreted, Feces",[2]; until 24 h postinjection,8.40 (3.14) % injected activity
same,"Radioactivity excreted, Urine",[2]; until 24 h postinjection,56.09 (4.93)^ ** % injected activity
